Source: US5475032A, “2,4-disulfonyl phenyl butyl nitrone, its salts, and their use as pharmaceuticals” (Oklahoma Medical Research Foundation, priority 1995, dated 1995)

How the values were obtained:
[1] = system: neuron loss following brain ischemia and reperfusion injury; assay: neuronal density after 5 min bilateral carotid occlusion, compound i.p. 30 min before ischemia (Example 3); assay type: in vivo, gerbil; conditions: for Neuronal nuclei/100 micron field: 30 min before ischemia
Protocol: In the experiments a test compound was administered to groups of six gerbils i.p. as a single dose 30 min before 5 min bilateral carotid occlusion. The density of neuronal nuclei in a 100 micron was measured. Two controls were present--controls which received no test compound and controls which received no test compound and no brain ischemia.

[2] = system: neuron loss following brain ischemia and reperfusion injury; assay: neuronal density, post-ischemia treatment, compound i.p. 30 min after reperfusion following 5 min ischemia (Example 4); assay type: in vivo, gerbil
[3] = system: neuronal loss following ischemia; assay: protection from neuronal loss, i.v. 60 min after reperfusion onset following 5 min ischemia (Example 5); assay type: in vivo, gerbil; conditions: for protection for neuronal loss (neuronal density): 60 min after reperfusion onset
[4] = system: temporal/spatial short term memory following ischemia; assay: 8-arm radial maze test 24 hours after ischemia (Example 6); assay type: in vivo, gerbil
Protocol: Brain injury can manifest itself as behavioral changes. In this experiment, young adult (3-4 months of age) gerbils were tested to determine their ability to perform an 8-arm maze test 24 hours following an ischemic event as described in Example 1. As compared to nonischemic animals, when untreated they committed many more errors. PBN and compound I were administered to some of the test animals.

[5] = system: infarct volume following middle cerebral occlusion; assay: infarct volume after middle cerebral occlusion (Example 7); assay type: in vivo, C57BL/6J mice; conditions: from 60 min after occlusion for 24 hours
Protocol: The ability of the compound of the invention to reduce infarct volume following an ischemic event was determined.

[6] = system: lethality from 10 min ischemia; assay: lethality protection in aged gerbils from 10 min ischemia (Example 8); assay type: in vivo, gerbil; conditions: 30 min before ischemia
[7] = body temperature depression (Example 10); assay type: in vivo; conditions: levels as high as 1000 mg/kg, mice and gerbils
From the text: Another undesirable systemic effect which has been observed in vivo with nitrone radical traps is a depression in body temperature. This toxicity can have serious health consequences and also can complicate diagnosis of other conditions.

[8] = system: glutamine synthetase (GS); assay: protection of glutamine synthetase against βAP 25-35 (Example 11); assay type: biochemical, gerbil; conditions: co-incubation with 0.4 mg/ml BAP 25-35
Protocol: (§1) Cytosolic fractions from gerbil neocortex were prepared and enzyme activities determined. Samples were incubated in the presence of different concentrations of the peptide for 10 min prior to assay. Solid symbols represent the effects of the naturally occurring 25-35 fragment. […] Each point is the mean (+/- s.e.) of 5 observations. βAP derived and other cellular sources of free radicals are an important determinant of the initiation and progression of AD.
(§2) Each point is the mean (+/- s.e.) of 3 observations.

creatine kinase (CK) [9] = assay: protection of creatine kinase against βAP 25-35 (Example 11); assay type: biochemical, gerbil; conditions: co-incubation with 0.4 mg/ml BAP 25-35
Protocol: as §1, §2

[10] = system: infarct volume following middle cerebral artery occlusion; assay: rat focal ischemia model, permanent middle cerebral artery occlusion (Example 12); assay type: in vivo, Sprague Dawley rats; conditions: both studies: 100 mg/kg i.p. then 4.2 mg/kg/hr i.v., or 10 mg/kg i.p. then 0.42 mg/kg/hr i.v., up to 24 h; 3 days post stroke
From the text: A pair of studies were done to determine the efficacy of Compound I in a rat focal ischemia model. In this model, Sprague Dawley rats (200-300 g) underwent a permanent middle cerebral artery occlusion (MCAO) to induce a focal stroke.
The rats were sacrificed 3 days post stroke, the tissue was processed histologically using triphenyltetrazolium staining techniques, and the infarct volume, the area of total cell necrosis, was quantitated using image analysis.

[11] = system: acute lethal effects of adriamycin; assay: adriamycin acute lethality and its prevention by pretreatment, DBA/2J mice (Example 13)
Protocol: (§3) All injections were intraperitoneal. The acute lethality of adriamycin ranged from 10 to 30 mg/kg.

[12] = system: acute lethal effects of adriamycin; assay: adriamycin acute lethality and its prevention by pretreatment, C57BL/6J mice (Example 13); assay type: in vivo; conditions: up to 300 mg/kg i.p., without adriamycin
From the text: (§4) All injections were intraperitoneal.

[13] = system: acute lethal effects of adriamycin; assay: comparative tests: nitrone pretreatment combined with adriamycin (Example 13); assay type: in vivo, mouse; conditions: doses of Compound I up to 300 mg/kg with adriamycin
From the text: as §4

Sprague Dawley rats = assay: acute toxicity in male Sprague Dawley rats (Example 14); assay type: in vivo, rat; conditions: 1000 mg/kg i.p., after 3 days
Protocol: The compounds were administered at 1000 mg/kg, i.p., to groups of 6 rats. After 3 days lethality was assessed.

solubility in water = assay type: physicochemical; conditions: free acid
[14] = doses demonstrated to be possible; conditions: up to and higher
[15] = adriamycin acute lethality and its prevention by pretreatment, DBA/2J mice (Example 13); conditions: mouse, in vivo, ip
Protocol: as §3

[16] = adriamycin acute lethality and its prevention by pretreatment, C57BL/6J mice (Example 13); assay type: in vivo; conditions: mouse, in vivo, ip
From the text: as §4

[17] = system: embryonic hippocampal neuronal and neuronal/glial cultures; conditions: extended period of co-incubation; cited from earlier work
rat brains = conditions: infused into rat brains; cited from earlier work
neuronal cultures = conditions: Dichlorofluorescein and increased intracellular free calcium Fura-2; cited from earlier work
[18] = system: glutamine synthetase (GS); assay: inactivation of glutamine synthetase by βAP fragments in cytosolic fractions of neocortex (Example 11); assay type: biochemical, gerbil; conditions: 10 min incubation prior to assay
Protocol: as §1

creatine kinase (CK) [19] = assay: inactivation of creatine kinase by βAP fragments in cytosolic fractions of neocortex (Example 11); assay type: biochemical, gerbil; conditions: 10 min incubation prior to assay
Protocol: as §1

neurotoxicity = conditions: cited from earlier work

Q: What does the source list for `CC(C)(C)[N+]([O-])=Cc1ccccc1S(=O)(=O)O` [Compound 2-sulfo, N-tert-butyl-α-(2-sulfophenyl) nitrone]?
A: Neuronal nuclei/100 micron field ([1]; 3.2 mg/kg i.p.): 0.73 Neuronal nuclei/100 micron field; Neuronal nuclei/100 micron field ([1]; 10 mg/kg i.p.): 0.68 Neuronal nuclei/100 micron field; Neuronal nuclei/100 micron field ([1]; 32 mg/kg i.p.): 0.73 Neuronal nuclei/100 micron field; Neuronal nuclei/100 micron field ([1]; 50 mg/kg i.p.): 1.01 Neuronal nuclei/100 micron field; Neuronal nuclei/100 micron field ([1]; 100 mg/kg i.p.): 0.93 Neuronal nuclei/100 micron field; Neuronal nuclei/100 micron field ([1]; 320 mg/kg i.p.): 1.11 Neuronal nuclei/100 micron field; Neuronal nuclei/100 micron field ([1]; 1000 mg/kg i.p.): 0.98 Neuronal nuclei/100 micron field; Neuronal nuclei/100 micron field ([2]; 50 mg/kg i.p.): 0.68 Neuronal nuclei/100 micron field; Neuronal nuclei/100 micron field ([2]; 100 mg/kg i.p.): 0.78 Neuronal nuclei/100 micron field; Neuronal nuclei/100 micron field ([2]; 320 mg/kg i.p.): 0.81 Neuronal nuclei/100 micron field

Q: Which “Neuronal nuclei/100 micron field” value ([1]; 3.2 mg/kg i.p.) does the source give for `CC(C)(C)[N+]([O-])=Cc1cccc(S(=O)(=O)O)c1` [Compound 3-sulfo] here?
A: 0.35 Neuronal nuclei/100 micron field

Q: What about the “Neuronal nuclei/100 micron field” value ([1]; 10 mg/kg i.p.) of the same molecule?
A: 0.81 Neuronal nuclei/100 micron field

Q: And the “Neuronal nuclei/100 micron field” value ([1]; 32 mg/kg i.p.)?
A: 1.63 Neuronal nuclei/100 micron field

Q: And the “Neuronal nuclei/100 micron field” value ([1]; 50 mg/kg i.p.)?
A: 1.63 Neuronal nuclei/100 micron field

Q: What about the “Neuronal nuclei/100 micron field” value ([1]; 100 mg/kg i.p.) of the same molecule?
A: 1.93 Neuronal nuclei/100 micron field

Q: And the “Neuronal nuclei/100 micron field” value ([1]; 320 mg/kg i.p.)?
A: 1.78 Neuronal nuclei/100 micron field

Q: And the “Neuronal nuclei/100 micron field” value ([1]; 1000 mg/kg i.p.)?
A: 1.58 Neuronal nuclei/100 micron field

Q: And the “Neuronal nuclei/100 micron field” value ([2]; 50 mg/kg i.p.)?
A: 0.73 Neuronal nuclei/100 micron field

Q: What about the “Neuronal nuclei/100 micron field” value ([2]; 100 mg/kg i.p.) of the same molecule?
A: 1.09 Neuronal nuclei/100 micron field

Q: And the “Neuronal nuclei/100 micron field” value ([2]; 320 mg/kg i.p.)?
A: 0.93 Neuronal nuclei/100 micron field

Q: For `CC(C)(C)[N+]([O-])=Cc1ccc(S(=O)(=O)O)cc1S(=O)(=O)O` [Compound I], which “Neuronal nuclei/100 micron field” value ([1]; 3.2 mg/kg i.p.) is on record?
A: 1.43 Neuronal nuclei/100 micron field

Q: And the “Neuronal nuclei/100 micron field” value ([1]; 10 mg/kg i.p.)?
A: 2.57 Neuronal nuclei/100 micron field

Q: And the “Neuronal nuclei/100 micron field” value ([1]; 32 mg/kg i.p.)?
A: 3.53 Neuronal nuclei/100 micron field

Q: What about the “Neuronal nuclei/100 micron field” value ([1]; 50 mg/kg i.p.) of the same molecule?
A: 4.11 Neuronal nuclei/100 micron field

Q: What about the “Neuronal nuclei/100 micron field” value ([1]; 100 mg/kg i.p.) of the same molecule?
A: 4.18 Neuronal nuclei/100 micron field

Q: And the “Neuronal nuclei/100 micron field” value ([1]; 320 mg/kg i.p.)?
A: 4.23 Neuronal nuclei/100 micron field

Q: And the “Neuronal nuclei/100 micron field” value ([1]; 1000 mg/kg i.p.)?
A: 4.11 Neuronal nuclei/100 micron field

Q: And the “Neuronal nuclei/100 micron field” value ([1]; 3200 mg/kg i.p.)?
A: 4.18 Neuronal nuclei/100 micron field

Q: And the “protection against neuronal loss” value ([1]; high dose levels)?
A: complete protection against neuronal loss

Q: What about the “Neuronal nuclei/100 micron field” value ([2]; 32 mg/kg i.p.) of the same molecule?
A: 1.83 Neuronal nuclei/100 micron field

Q: And the “Neuronal nuclei/100 micron field” value ([2]; 50 mg/kg i.p.)?
A: 2.73 Neuronal nuclei/100 micron field

Q: What about the “Neuronal nuclei/100 micron field” value ([2]; 100 mg/kg i.p.) of the same molecule?
A: 3.41 Neuronal nuclei/100 micron field

Q: What about the “Neuronal nuclei/100 micron field” value ([2]; 320 mg/kg i.p.) of the same molecule?
A: 3.55 Neuronal nuclei/100 micron field

Q: And the “Neuronal nuclei/100 micron field” value ([2]; 1000 mg/kg i.p.)?
A: 3.68 Neuronal nuclei/100 micron field

Q: What about the “protection for neuronal loss (neuronal density)” value (from here on “protection for neuronal loss”) ([3]; 0.5 mg/kg single dose i.v.) of the same molecule?
A: 1.25

Q: What about the “protection for neuronal loss” value ([3]; 1.0 mg/kg single dose i.v.) of the same molecule?
A: 1.75

Q: And the “protection for neuronal loss” value ([3]; 10 mg/kg single dose i.v.)?
A: 2.43

Q: What about the “effect on neuronal density in control gerbils” value ([3]; control gerbils without brain injury) of the same molecule?
A: Neither PBN nor Compound I. had an effect on neuronal density

Q: What about the “errors in 8-arm radial maze” value ([4]; 1.0 mg/kg/hr for 24 hours) of the same molecule?
A: 14.63 errors

Q: And the “errors in 8-arm radial maze” value ([4]; 32 mg/kg/hr for 24 hours)?
A: 7.19 errors

Q: What about the “errors in 8-arm radial maze” value ([4]; 50 mg/kg/hr for 24 hours) of the same molecule?
A: 4.28 errors

Q: What about the “errors in 8-arm radial maze” value ([4]; 100 mg/kg/hr for 24 hours) of the same molecule?
A: 4.11 errors

Q: And the error levels ([4]; high doses)?
A: error levels indistinguishable from those of nonischemic animals

Q: What about the “Infarct Volume” value ([5]; 1.0 mg/kg/hr i.v.) of the same molecule?
A: 16.8 mm^3

Q: And the “Infarct Volume” value ([5]; 10 mg/kg/hr i.v.)?
A: 12.7 mm^3

Q: And the “Infarct Volume” value ([5]; 100 mg/kg/hr i.v.)?
A: 8.3 mm^3

Q: What about the “lethality protection (% survived)” value ([6]; 10 mg/kg) of the same molecule?
A: 50%

Q: And the “lethality protection (% survived)” value ([6]; 32 mg/kg)?
A: 75%

Q: And the “lethality protection (% survived)” value ([6]; 100 mg/kg)?
A: 100%

Q: What about the “lethality protection (% survived)” value ([6]; 320 mg/kg) of the same molecule?
A: 100%

Q: What about the lethality protection ([6]; Compound I: at high levels) of the same molecule?
A: complete protection

Q: And the temperature decrease [7]?
A: no measurable temperature decrease

Q: And the “protection of GS against the effects of βAP fragments” value [8]?
A: complete protection

Q: And the “protection of CK against the effects of βAP fragments” value (creatine kinase (CK) [9])?
A: complete protection

Q: And the “protection (infarct volume)” value [10]?
A: approximately 70%

Q: And the “maximally tolerated dose of adriamycin in combination” value ([11]; combination with adriamycin)?
A: marked increase in the maximally tolerated dose

Q: And the effect on survival ([11]; up to 300 mg/kg i.p., without adriamycin, DBA/2J)?
A: no effect on survival

Q: And the effect on survival [12]?
A: no effect on survival

Q: What about the combined toxicity [13] of the same molecule?
A: did not produce any combined toxicity

Q: And the lethality (Sprague Dawley rats)?
A: no lethality

Q: What about the solubility (solubility in water) of the same molecule?
A: > 1000 mg/mL

Q: What about the “dose demonstrated to be possible” value [14] of the same molecule?
A: ≥ 1000 mg/kg/h

Q: What does the source list for `COc1cccc2c1C(=O)c1c(O)c3c(c(O)c1C2=O)C[C@@](O)(C(=O)CO)C[C@@H]3O[C@H]1C[C@H](N)[C@H](O)[C@H](C)O1` [adriamycin]?
A: LD50 [15]: 25 mg/kg; LD50 [16]: 25 mg/kg

Q: Which results are given for βAP 1-40: beta amyloid peptide 1-40?
A: cytotoxicity [17]: produces cytotoxicity; lesions in rat brains (rat brains): lesions are produced; oxidative stress (neuronal cultures): results in oxidative stress

Q: With “βAP (25-35): proposed breakdown fragment of βAP; naturally occurring 25-35 fragment (GSNKGAIIGLM; Amyloid-beta protein 42; UniProt P05067 696-706, looked up, fragment)” as the molecule, how does the “inactivation of glutamine synthetase” value [18] read?
A: dose-related inactivation

Q: And the “inactivation of creatine kinase” value (creatine kinase (CK) [19])?
A: dose-related inactivation

Q: What about the neurotoxicity (neurotoxicity) of the same molecule?
A: neurotoxic
